Test results taken from publication PMC5454942, “The Potential of Triterpenoids from Loquat Leaves (Eriobotrya japonica) for Prevention and Treatment of Skin Disorder” (International Journal of Molecular Sciences, 2017).
Values after ≈ are worked out from the molar mass of the structure shown. Values joined by “and” are separate entries in the source; they are usually repeats but may differ in a detail not shown here. Identical values can stand only once.

Experiments:
B16 melanoma cells [1] = experiment: Anti-melanogenesis assay (melanin content); assay type: cell-based, mouse; details: for Inhibition rate (100% − melanin synthesis): B16 cells; for IC50 melanin / IC50: B16 melanoma cells; for IC50: read-out: IC50 (melanin synthesis)
Procedure: (§1) This assay was performed as described by Arung et al.. The mouse melanoma cell line B16 was obtained from the Riken Bioresource Center Cell Bank (Tsukuba, Japan). The B16 melanoma cells were maintained in Eagle’s Minimal Essential Medium (EMEM, Nissui Chemical, Tokyo) supplemented with 10% (v/v) fetal bovine serum (FBS; Gibco, Carlsbad, CA, USA) and 0.09 mg/mL theophylline (Sigma-Aldrich, St. Louis, MO, USA). […] After 24 h, test samples were dissolved in DMSO (<0.2% per well) and sample solution were added to each well. Arbutin (Tokyo Kasei Kogyo, Tokyo) was used as a positive control. The cells were incubated for an additional 48 h, and then the medium was replaced with fresh medium containing each sample again. After 24 h, the melanin content and the cell viability were measured using a microplate reader (BioTek-ELX800, BioTek Instruments, Winooski, VT, USA) at 405 nm and 570 nm, respectively. Cell viability was measured using the MTT (3-(4,5-dimethylthiazol-2-yl)-2,5-diphenyltetrazolium bromide) method.

B16 melanoma cells [2] = experiment: Cell viability of B16 melanoma cells (MTT); details: for Inhibition rate (100% − cell viability): B16 cells; for CC50 cell viability / CC50: B16 melanoma cells, MTT; for CC50: read-out: CC50 (cell viability)
Procedure: as §1

Propionibacterium acnes = experiment: Anti-bacterial assay (growth inhibition, MIC/MBC by broth microdilution); assay type: cell-based; details: for Inhibition Rate (P. acnes growth): concentration 100 μg/mL; for activity against P. acnes (in words): at their maximum solubility
Procedure: The antibacterial assay was based mostly on the methods described by Tanaka et al. with slight modification. Propionibacterium acne (NBRC 107605) was used for the antibacterial assay. A single colony of the test strain was taken and 5 mL of Gifu anaerobic medium (GAM) broth (Nissui, Tokyo) was added to it. This culture was incubated at 37 °C for 30 h. It was then added to the bacterial suspension to prepare a bacterial concentration at 10^5 CFU/mL. The bacterial solution was used for the subsequent antibacterial assay. Each compound was dissolved in DMSO, and benzalkonium chloride (Wako) was used as a positive control. The plate was incubated at 37 °C for 30 h. Finally, bacterial growth was measured by a microplate reader at 630 nm. The MIC and MBC were evaluated by the standard broth microdilution method.

RBL-2H3 cells [3] = experiment: β-hexosaminidase release from IgE-stimulated RBL-2H3 mast cells; assay type: cell-based, rat; details: 25 μg/mL
Procedure: (§2) The anti-allergy assay was based mostly on the methods described by Zhu et al. and Yun et al. with slight modification. Rat basophilic leukemia (RBL-2H3) cells were obtained from the Riken Bio-resource Center Cell Bank (Tsukuba, Japan). RBL-2H3 cells were incubated in EMEM medium containing 10% FBS and 1% antibiotics–antimycotics at 37 °C. The cells were seeded on a 96-well plate (2 × 10^5 cells/well). After 24 h of incubation, the medium was supplemented with 0.5 μg/mL anti-DNP (dinitrophenol) mouse immunoglobulin E (IgE) (Sigma-Aldrich). After an additional 24 h of incubation, the medium was replaced with 100 μL of Tyrode buffer. The sample dissolved in DMSO (<0.5% per well) was added, and the cell plate was incubated again for 30 min, then replaced with 100 μL of tyrode buffer containing 50 μg/mL DNP-bovine serum albumin (BSA) (Invitrogen, Carlsbad, CA, USA). After 1 h of incubation, 50 μL of the supernatant was collected from each well and mixed with 50 μL of substrate solution (p-nitrophenyl-N-acetyl-β-glucosaminide, 2 mM; Sigma-Aldrich) in a new 96-well plate. The mixture was incubated at room temperature on a shaker for 3 h. Finally, 100 μL of stop solution was added, and the absorbance was read at 405 nm. A parallel MTT experiment was performed to measure the cell viability. The MTT experiment was done exactly as described.

RBL-2H3 cells [4] = experiment: Cell viability of RBL-2H3 cells (parallel MTT); assay type: cell-based, rat; details: 25 μg/ml, RBL-2H3 cells
Procedure: as §2

NHDF cells = experiment: Skin type I collagen synthesis promoting assay (ELISA, with MTT); assay type: cell-based, human; details: fold of control
Procedure: The assay for measuring the promotion of skin collagen synthesis was described by Kishikawa et al.. Adult NHDF cells (Lonza, Tokyo) were routinely maintained in 10% FBS and 1% antibiotic-antimycotic (Invitrogen) in Dulbecco’s modified Eagle’s medium (DMEM, Wako). After growing to confluence, cells at a density of 5 × 10^3 cells/well were seeded on 96-well plates for 24 h before the treatment. The medium was replaced with a mixture of 1 μL of sample solution (DMSO < 0.5% per well) and 99 μL of DMEM supplemented with 0.5% FBS. After 72 h of cultivation, the amount of collagen in the medium was measured using a human type I collagen enzyme-linked immunosorbent assay (ELISA) kit (ACEL, Kanagawa, Japan). The amount of collagen production was calculated using a standard curve prepared by measurement by the same ELISA. The cells remaining in the 96-well plate were subjected to an MTT assay. Ascorbic acid (100 μM, Wako) was used as a positive control.

IC50 melanin (B16 melanoma cells [1]) [µg/mL]	IC50 (B16 melanoma cells [1]) [µM]	SMILES	Inhibition rate (100% − melanin synthesis) (B16 melanoma cells [1]; 1 μg/ml) [%]	Inhibition rate (100% − melanin synthesis) (B16 melanoma cells [1]; 2.5 μg/ml) [%]	Inhibition rate (100% − melanin synthesis) (B16 melanoma cells [1]; 5 μg/ml) [%]	Inhibition rate (100% − melanin synthesis) (B16 melanoma cells [1]; 10 μg/ml) [%]	Inhibition rate (100% − cell viability) (B16 melanoma cells [2]; 1 μg/ml) [%]	Inhibition rate (100% − cell viability) (B16 melanoma cells [2]; 2.5 μg/ml) [%]	Inhibition rate (100% − cell viability) (B16 melanoma cells [2]; 5 μg/ml) [%]	Inhibition rate (100% − cell viability) (B16 melanoma cells [2]; 10 μg/ml) [%]	CC50 cell viability (B16 melanoma cells [2]) [µg/mL]	CC50 (B16 melanoma cells [2]) [µM]	Inhibition Rate (P. acnes growth) (Propionibacterium acnes)	Inhibition Rate (β-hexosaminidase release) (RBL-2H3 cells [3]) [%]	Cell viability (RBL-2H3 cells [4]) [%]	CP/CV value (collagen production %/cell viability %) (NHDF cells; 5 μg/mL)	activity against P. acnes (in words) (Propionibacterium acnes)	CP/CV value (collagen production %/cell viability %) (NHDF cells; 10 μg/mL)	Inhibition rate (100% − cell viability) (B16 melanoma cells [2]; 20 μg/ml) [%]	further results
6.2 (≈ 12.7 µM)	12.8	COC(=O)[C@]12CCC(C)(C)C[C@@H]1C1=CC[C@@H]3[C@@]4(C)C[C@@H](O)[C@H](O)C(C)(C)C4CC[C@@]3(C)[C@]1(C)CC2 (stereo partly drawn) [Compound 5, Methyl maslinate]	0.0 ± 4.4	1.6 ± 0.6	44.8 ± 4.3	68.2 ± 0.6	4.7 ± 8.1	1.3 ± 5.2	12.1 ± 8.6	75.9 ± 0.5	8.4 (≈ 17.3 µM)	17.5	– (no inhibition)	8.5 ± 9.5	105.8 ± 1.1	1.2				
7.8 (≈ 16 µM)	16.1	COC(=O)[C@]12CC[C@@H](C)[C@H](C)[C@H]1C1=CC[C@@H]3[C@@]4(C)C[C@@H](O)[C@H](O)C(C)(C)[C@@H]4CC[C@@]3(C)[C@]1(C)CC2 [Compound 6, methyl corosolate]	0.0 ± 1.9	2.8 ± 4.5	32.7 ± 1.5	63.5 ± 2.7	4.5 ± 13.7	10.5 ± 10.9	15.4 ± 5.1	59.4 ± 7.0	9.1 (≈ 18.7 µM)	18.7	77.9 ± 1.6%	2.4 ± 14.1	97.6 ± 14.1	2.4	active	3.4 and 3.6		
> 20.0	> 42.3	C[C@@H]1CC[C@]2(C(=O)O)CC[C@]3(C)C(=CC[C@@H]4[C@@]5(C)C[C@@H](O)C(=O)C(C)(C)[C@@H]5CC[C@]43C)[C@@H]2[C@]1(C)O [Compound 15, 2α, 19α-dihydroxy-3-oxo-12-ursen-28-oic acid]				24.2 ± 1.0			5.6 ± 4.6	11.4 ± 3.9	> 20.0	> 42.3	– (no inhibition)	0.9 ± 0.0	102.1 ± 2.2	1.1			26.4 ± 1.4	
> 20.0	> 30.9	C[C@@H]1CC[C@]2(C(=O)O)CC[C@]3(C)C(=CC[C@@H]4[C@@]5(C)C[C@@H](O)[C@H](OC(=O)/C=C/c6ccc(O)cc6)C(C)(C)[C@@H]5CC[C@]43C)[C@@H]2[C@]1(C)O (relative stereo) [Compound 17, 3-O-trans-p-coumaroyl tormentic acid]	2.8 ± 0.9	6.2 ± 1.7	11.1 ± 0.6	29.4 ± 6.8	0.0 ± 8.4	5.1 ± 6.0	10.7 ± 10.0	41.1 ± 9.2	15.6 (≈ 24.6 µM)	24	101.4 ± 2.1%		99.8 ± 7.0	1.2	active		61.0 ± 1.6	Inhibition rate (100% − melanin synthesis) (B16 melanoma cells [1]; 20 μg/ml): 30.5 ± 6.0%; MBC (Propionibacterium acnes; P. acnes, broth microdilution): 200 µg/mL (≈ 315 µM); MIC (Propionibacterium acnes; P. acnes, broth microdilution): 100 µg/mL (≈ 158 µM)
7.2 (≈ 14.8 µM)	14.8	C[C@@H]1CC[C@]2(C(=O)O)CC[C@]3(C)C(=CC[C@@H]4[C@@]5(C)CCC(=O)C(C)(C)[C@@H]5[C@H](O)C[C@]43C)[C@@H]2[C@]1(C)O [Compound 14, 6β,19-dihydroxyurs-12-en-3-oxo-28-oic acid]	6.9 ± 1.8	15.8 ± 1.8	39.5 ± 3.1	67.3 ± 1.4	2.5 ± 8.3	1.2 ± 9.7	44.1 ± 0.4	69.1 ± 10.0	5.3 (≈ 10.9 µM)	10.9	87.6 ± 7.4%		66.8 ±11.1	1.4	active	1.1		CP/CV value (collagen production %/cell viability %) (NHDF cells; 1 μg/mL): 1.2
